Experimental data taken from patent publication US20240139170A1, “TOPICAL FORMULATIONS OF A JAK 1/3 INHIBITOR AND METHODS OF USE THEREOF FOR TREATMENT OF ATOPIC DERMATITIS AND OTHER SKIN CONDITIONS” (ACLARIS THERAPEUTICS, INC., priority 2021, published 2024).
“And” between values parts separate entries of the source, which are not always exact repeats. Equal entries are not always repeated. “Also recorded” adds a separate entry of the source.

Key:
[1] = in vivo
[2] = Phase 2a study, plasma pharmacokinetics; assay type: in vivo, human
Experimental: (§1) PK blood draws assessed systemic exposure.
(§2) The topical formulation was applied topically twice per day, approximately 8 to 12 hours apart. Up to 8 mL, 1 mL at a time, is applied to an identified AD target area of the subject and rubbed into said area by the subject to achieve a thin film on the skin. Less than 8 mL may be used if less is required to fully cover the identified AD target area. Subjects document symptoms of AD, such as itching, on a daily basis. Subjects were asked to abstain from washing the treated area within 6 hours after application, minimize sun exposure, refrain from using moisturizers, emollients, and sunscreen on the treatment areas, and refrain from activities that would cause profuse sweating (e.g., exercise) for a period of 6 hours after each application. The study ran 4 weeks. On days 1, 8, and 15, a pharmacokinetic sample (e.g., blood) was collected from each subject about 2 hours after application of the topical formulation. On day 28, the following pharmacokinetic samples were collected: • Subgroup 1: One sample before application and one sample at 0.5 to 2.5 hours post application • Subgroup 2: One sample at 2.5 to 5 hours post application and one sample at least 2 hours later • Subgroup 3: One sample at 5 to 8 hours post application and one sample at least 2 hours later (prior to the subsequent application)

[3] = Phase 2a study, safety (adverse events); settings: for Candida infection: patients with at least one event: BID, N = 23
[4] = Phase 2a study, plasma pharmacokinetics; assay type: in vivo, human; remark: listed apart in the source
[5] = system: moderate or severe atopic dermatitis; test: Phase 2a study, efficacy (EASI/mEASI, PP-NRS); assay type: in vivo, human
Text: as §1
Fifty (50) subjects, aged 18-65 years, male and female were selected to use either a topical formulation comprising 2% w/w Compound I or a placebo. Pertinent inclusion criteria for the study included: (i) a diagnosis of atopic dermatitis (AD) fulfilled the specified diagnostic criteria of Hanifin and Rajka (Hanifin J M, Rajka G. Diagnostic features of atopic dermatitis. Acta Derm Venereol. Suppl 1980; 92: 44-7, which is hereby incorporated by reference in its entirety); (ii) a 6-month history of AD; (iii) no significant AD flares for 4 weeks prior; (iv) at least 1 lesion measuring […], but not located on the hands, feet, or genitalia; (v) a stable diagnosis of moderate or severe (Investigator's Global Assessment (IGA) score of 3 or 4); (vi) Eczema Area and Severity Index (EASI) score of ≤48; and (vii) have AD affecting 3% to 20% of Body Surface Area (BSA) (not including head, […], soles of feet, groin, and genitalia).
The 50 subjects were randomized into 2% Compound I treatment (n=23) and vehicle treatment (n=25) groups. Two of the subjects were randomized but not treated. Of the allocated subjects, 91% (n=21) of the Compound I treatment group and 72% (n=18) completed the study. The demographics and baseline characteristics of the study subjects is provided below in Table 3.
as §2
On each of these days 1, 8, 15, and 28, symptoms of AD in each subject were evaluated by EASI score, IGA, PP-NRS, and BSA. Primary efficacy of treatment was measured by a percent change from baseline EASI (EASI at day 1) to EASI at day 28.
Further measurements of efficacy included percent change in EASI between each of days 1, 8, 15, and 28 as well as change from baseline and/or prior evaluation of IGA, AD BSA, and PP-NRS on days 8, 15, and 28; percent of subjects achieving IGA scores of 0 to 1 combined with an improvement of 2 or more points from baseline by day 28; proportion of subjects who achieve 50%, 75%, and 90% improvement in EASI score (compared to baseline).
The primary efficacy endpoint of this trial was the percent change from baseline in the Eczema Area and Severity Index (EASI) score at week 4.

CCOC(=O)c1cnc2[nH]ccc2c1N[C@@H]1CCCN(C(=O)CC#N)C1 [Compound I, ethyl (R)-4-((1-(2-cyanoacetyl)piperidin-3-yl)amino)-1H-pyrrolo[2,3-b]pyridine-5-carboxylate]
Application site irritation: patients with at least one event ([1]; human): 0
Oropharyngeal pain: patients with at least one event ([1]; human): 0
Pharyngitis streptococcal: patients with at least one event ([1]; human): 0
Rash: patients with at least one event ([1]; human): 0
SARS-CoV-2 test positive: patients with at least one event ([1]; human): 0
Sinus congestion: patients with at least one event ([1]; human): 0
Skin fragility: patients with at least one event ([1]; human): 0
Somnolence: patients with at least one event ([1]; human): 0
COVID-19: patients with at least one event ([1]; human, 4 weeks): 0
Related TEAE, last figure of the cell (number of events) ([1]; human, 4 weeks): 1
Severe TEAE, last figure of the cell (number of events) ([1]; human, 4 weeks): 2
Subjects reporting AEs ([1]; human, 4 weeks): 9/23
Subjects with at least one SAE ([1]; human, 4 weeks): 0
Subjects with at least one TEAE leading to discontinuation of study drug ([1]; human, 4 weeks): 0
Subjects with at least one TEAE, number (percent) ([1]; human, 4 weeks): 9 (39.1)
Subjects with at least one related TEAE, number (percent) ([1]; human, 4 weeks): 1 (4.3)
Subjects with at least one severe TEAE, number (percent) ([1]; human, 4 weeks): 2 (8.7)
TEAE, last figure of the cell (number of events, agrees with Table 7) ([1]; human, 4 weeks): 16
Severe adverse events [1]: Two unrelated severe events (AF and elevated CPK)
Thrombosis [1]: no reports of thrombosis
Tolerability [1]: generally well tolerated
Mean drug levels in plasma relative to IC50 ([2]; 2% BID topical, 4 weeks): ≤ 5 % of the IC50
Plasma samples with Compound I levels below the lower limit of quantitation of 0.1 ng/mL ([2]; 4-week topical treatment, 2% BID): Greater than 86%
Plasma samples with concentration of the active compound below 1 ng/ml ([2]; 4-week topical treatment, treatment arm): greater than 86%
Average plasma concentration ([2]; Day 1, 2 hr post dose): 1.604 ng/mL
Average plasma concentration ([2]; Day 8, 2 hr post dose): 0.519 ng/mL
Average plasma concentration ([2]; Day 28, pre dose): 0.328 ng/mL
All plasma concentrations relative to IC50 ([2]; IC50=36 ng/mL, 2% BID topical): less than half of the IC50
Plasma Compound I CONC ([2]; subject 004-0002, Day 1, hour 0 Predose, LLOQ 0.100): <LLOQ
Plasma Compound I CONC ([2]; subject 004-0002, Day 1, hour 2, LLOQ 0.100): <LLOQ
Plasma Compound I CONC ([2]; subject 004-0002, Day 8, hour 2): 0.229 ng/mL
Plasma Compound I CONC ([2]; subject 004-0002, Day 15, hour 2, LLOQ 0.100): <LLOQ
Plasma Compound I CONC ([2]; subject 004-0002, Day 28/ET, 0.5-2.5 hr): 0.168 ng/mL
Plasma Compound I CONC ([2]; subject 004-0002, Day 28/ET, hour 0 Predose): 0.165 ng/mL
Plasma Compound I CONC ([2]; subject 004-0004, Day 1, hour 0 Predose, LLOQ 0.100): <LLOQ
Plasma Compound I CONC ([2]; subject 004-0004, Day 1, hour 2, LLOQ 0.100): <LLOQ
Plasma Compound I CONC ([2]; subject 004-0004, Day 8, hour 0 Predose, LLOQ 0.100): <LLOQ
Plasma Compound I CONC ([2]; subject 004-0004, Day 8, hour 2, LLOQ 0.100): <LLOQ
Plasma Compound I CONC ([2]; subject 004-0004, Day 15, hour 2, LLOQ 0.100): <LLOQ
Plasma Compound I CONC ([2]; subject 004-0004, Day 28/ET, 5-8 hr, LLOQ 0.100): <LLOQ
Plasma Compound I CONC ([2]; subject 004-0004, Day 28/ET, 7-10 hr): 0.104 ng/mL
Plasma Compound I CONC ([2]; subject 004-0008, Day 1, hour 2): 1.62 ng/mL
Plasma Compound I CONC ([2]; subject 004-0008, Day 8, hour 0 Predose): 0.616 ng/mL
Plasma Compound I CONC ([2]; subject 004-0008, Day 8, hour 2): 0.639 ng/mL
Plasma Compound I CONC ([2]; subject 004-0008, Day 15, hour 0 Predose): 0.740 ng/mL
Plasma Compound I CONC ([2]; subject 004-0008, Day 15, hour 2): 0.512 ng/mL
Plasma Compound I CONC ([2]; subject 004-0008, Day 28/ET, 2.5-5 hr): 0.543 ng/mL
Plasma Compound I CONC ([2]; subject 004-0008, Day 28/ET, 4.5-7 hr): 0.441 ng/mL
Plasma Compound I CONC ([2]; subject 012-0001, Day 1, hour 0 Predose, LLOQ 0.100): <LLOQ
Plasma Compound I CONC ([2]; subject 012-0001, Day 1, hour 2): 14.9 ng/mL
Plasma Compound I CONC ([2]; subject 012-0001, Day 8, hour 2): 1.50 ng/mL
Plasma Compound I CONC ([2]; subject 012-0001, Day 15, hour 0 Predose): 0.521 ng/mL
Plasma Compound I CONC ([2]; subject 012-0001, Day 15, hour 2): 1.05 ng/mL
Plasma Compound I CONC ([2]; subject 012-0001, Day 28/ET, 0.5-2.5 hr): 3.71 ng/mL
Plasma Compound I CONC ([2]; subject 012-0001, Day 28/ET, hour 0 Predose): 1.23 ng/mL
Plasma Compound I CONC ([2]; subject 012-0017, Day 1, hour 0 Predose, LLOQ 0.100): <LLOQ
Plasma Compound I CONC ([2]; subject 012-0017, Day 1, hour 2): 2.45 ng/mL
Plasma Compound I CONC ([2]; subject 012-0017, Day 8, hour 0 Predose): 0.845 ng/mL
Plasma Compound I CONC ([2]; subject 012-0017, Day 8, hour 2): 0.459 ng/mL
Plasma Compound I CONC ([2]; subject 012-0017, Day 15, hour 0 Predose): 11.1 ng/mL
Plasma Compound I CONC ([2]; subject 012-0017, Day 15, hour 2): 5.26 ng/mL
Plasma Compound I CONC ([2]; subject 012-0017, Day 28/ET, 5-8 hr): 0.536 ng/mL
Plasma Compound I CONC ([2]; subject 012-0017, Day 28/ET, 7-10 hr): 0.704 ng/mL
Plasma Compound I CONC ([2]; subject 13-0001, Day 1, hour 0 Predose, LLOQ 0.100): <LLOQ
Plasma Compound I CONC ([2]; subject 13-0001, Day 1, hour 2): 12.9 ng/mL
Plasma Compound I CONC ([2]; subject 13-0001, Day 8, hour 0 Predose): 0.914 ng/mL
Plasma Compound I CONC ([2]; subject 13-0001, Day 8, hour 2): 1.79 ng/mL
Plasma Compound I CONC ([2]; subject 13-0001, Day 15, hour 2): 1.86 ng/mL
Plasma Compound I CONC ([2]; subject 13-0001, Day 28/ET, 0.5-2.5 hr): 3.99 ng/mL
Plasma Compound I CONC ([2]; subject 13-0001, Day 28/ET, hour 0 Predose): 0.530 ng/mL
Highest plasma concentration in any subject ([2]; whole study): ≤ 15 ng/mL
Samples with plasma concentrations > 1/10th the IC50 ([2]; whole study): 6 total samples
Subjects with plasma concentrations > 1/10th the IC50 ([2]; whole study): 3 subjects
Deaths / serious adverse events ([3]; 4 weeks BID): No deaths or SAEs were reported; also recorded: No serious adverse events were reported
Candida infection: patients with at least one event ([3]; Mild): 0
Candida infection: patients with at least one event ([3]; Moderate): 1 (4.3)
Candida infection: patients with at least one event ([3]; Severe): 0
Plasma Compound I CONC ([4]; subject 004-0002, Day 8, hour 0 Predose): 0.188 ng/mL
Plasma Compound I CONC ([4]; subject 004-0002, Day 15, hour 0 Predose): 0.100 ng/mL
Plasma Compound I CONC ([4]; subject 004-0004, Day 15, hour 0 Predose, LLOQ 0.100): <LLOQ
Plasma Compound I CONC ([4]; subject 004-0008, Day 1, hour 0 Predose, LLOQ 0.100): <LLOQ
Plasma Compound I CONC ([4]; subject 012-0001, Day 8, hour 0 Predose): 1.43 ng/mL
Plasma Compound I CONC ([4]; subject 13-0001, Day 15, hour 0 Predose): 0.598 ng/mL
Mean decrease in PP-NRS score relative to baseline ([5]; after one week, 2% BID): 1.72
Patients achieving 50% improvement in EASI score (EASI 50) ([5]; end of week 1 (day 8), 2% BID): 34.8%
Patients achieving 75% improvement in EASI score (EASI 75) ([5]; end of week 1 (day 8), 2% BID): 13.0%
Patients achieving 90% improvement in EASI score (EASI 90) ([5]; end of week 1 (day 8), 2% BID): 4.3%
Patients achieving 50% improvement in EASI score (EASI 50) ([5]; end of week 2 (day 15), 2% BID): 69.6%
Patients achieving 75% improvement in EASI score (EASI 75) ([5]; end of week 2 (day 15), 2% BID): 21.7%
Patients achieving 90% improvement in EASI score (EASI 90) ([5]; end of week 2 (day 15), 2% BID): 8.7%
Patients achieving 50% improvement in EASI score (EASI 50) ([5]; end of week 4 (day 28), 2% BID): 91.3%
Patients achieving 75% improvement in EASI score (EASI 75) ([5]; end of week 4 (day 28), 2% BID): 65.2%
Patients achieving 90% improvement in EASI score (EASI 90) ([5]; end of week 4 (day 28), 2% BID): 30.4%
Reduction in mean mEASI score from baseline ([5]; week 4 (day 28), 2.0% topical solution BID, FAS N=23, primary endpoint): 74.4% and 74.5%
